Experimental data: patent US20180104220A1, “IMIDAZOLE COMPOUND” (MEDSHINE DISCOVERY INC., priority 2015, published 2018)

target: T1, thromboxane synthetase (Rattus norvegicus, UniProt P49430); assay: Release of TXB2 in the in-vitro coagulation process of rats' whole blood; type: cell-based; conditions: male SD rat whole blood, 37° C. 30 mins, TXB2 by LC-MS/MS; class symbols; read-out: IC50 for the release level of TXB2 in the in-vitro coagulation of rats' whole blood (thromboxane synthetase)
T1 construct: Whole blood was collected from the heart of male SD rat after isoflurane anesthesia; from tissue; host or cells: whole blood of male Sprague-Dawley rats
T1 sequence (P49430 1-533): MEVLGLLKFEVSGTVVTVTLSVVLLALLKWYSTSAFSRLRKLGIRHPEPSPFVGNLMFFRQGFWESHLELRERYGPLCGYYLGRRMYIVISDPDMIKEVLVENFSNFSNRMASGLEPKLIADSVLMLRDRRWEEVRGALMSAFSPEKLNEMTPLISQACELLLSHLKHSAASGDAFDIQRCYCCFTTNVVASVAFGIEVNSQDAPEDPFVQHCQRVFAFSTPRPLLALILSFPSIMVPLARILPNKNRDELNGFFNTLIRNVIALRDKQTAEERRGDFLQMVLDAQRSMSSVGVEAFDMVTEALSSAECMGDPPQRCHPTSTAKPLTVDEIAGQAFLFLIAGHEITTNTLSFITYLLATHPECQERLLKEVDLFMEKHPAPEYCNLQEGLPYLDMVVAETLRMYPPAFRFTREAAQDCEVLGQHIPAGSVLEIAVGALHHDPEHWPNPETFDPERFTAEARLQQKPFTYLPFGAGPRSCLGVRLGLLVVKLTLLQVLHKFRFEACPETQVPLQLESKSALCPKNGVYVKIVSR
From the text: Study for the Release of TXB2 in the in-vitro Coagulation Process of Rats' Whole Blood
In the in-vitro coagulation process, thromboxane A2 (TXA2) pathway was activated, resulting in the formation of large amounts of TXA2, which were rapidly metabolized to its stable form thromboxane B2 (TXB2).
The key enzyme of this pathway was thromboxane synthase. The generation of TXA2 could be inhibited by blocking this enzyme with specific inhibitors (tested compounds), and the level of TXB2 was thus decreased.
The activity of tested compound was measured with the IC50 of inhibiting the formation of TBX2.
Male Sprague-Dawley (SD) rats, purchased from Shanghai SLAC Laboratory Animal Co., Ltd.
0.9% normal saline, […] NaOH solution (vehicle), 100 uM thromboxane synthetase inhibitor solution, isoflurane
1. Tested compound was dissolved by normal saline and prepared to required concentration by gradient dilution. 167 uL of prepared solution was added to centrifuge tube.
2. Whole blood was collected from the heart of male SD rat after isoflurane anesthesia, added to centrifuge tube (0.5 mL), shaken up and incubated under 37° C. water bath for 30 mins until complete coagulation.
3. Centrifuge tube was taken out and centrifuged for 5 mins (6000 g, 4° C.) to get serum.
4. Assay the content of TXB2 by LC-MS/MS-AG (API 4000).
By comparison with the vehicle group, TXB2 contents of each sample were normalized to Control % by the formule:
Control %=(TBX2 level in test tube−TBX2 level in negative tube)/TBX2 level in control tube×100
Note: Test tube: solution of tested compound with series concentration
Negative tube: solution of thromboxane synthetase inhibitor at high concentration (100 uM)
Using GraphPad Prism (concentration as X-axis and Control % as Y-axis) to fit the data and calculate IC50.

Row | IC50 [nM] | Compound
1 | 25 to 50 | Oc1cc(-c2ccc(Cn3ccnc3)c(Br)c2)on1 [Compound 13, 5-(4-((1H-imidazol-1-yl)methyl)-3-bromophenyl)isoxazol-3-ol]
2 | 50 to 100 | Cc1cc(Cn2ccnc2)ccc1-c1cc(O)no1 [Compound 8, 5-(4-((1H-imidazol-1-yl)methyl)-2-methylphenyl)isoxazol-3-ol]
3 | 25 to 50 | Oc1cc([C@H]2CC[C@H](Cn3ccnc3)CC2)on1 [Compound 34, 5-(trans-4-((1H-imidazol-1-yl)methyl)cyclohexyl)isoxazol-3-ol]
4 | ≤ 25 | C[C@H](c1ccc(-c2cc(O)no2)cc1)n1ccnc1 [Compound 21, (R)-5-(4-(1-(1H-imidazol-1-yl)ethyl)phenyl)isoxazol-3-ol]
5 | ≤ 25 | CC(c1ccc(-c2cc(O)no2)cc1)n1ccnc1 (stereo not drawn) [Compound 20, 5-(4-(1-(1H-imidazol-1-yl)ethyl)phenyl)isoxazol-3-ol]
6 | 50 to 100 | Oc1cc(-c2ccc(Cn3ccnc3)cc2Cl)on1 [Compound 7, 5-(4-((1H-imidazol-1-yl)methyl)-2-chlorophenyl)isoxazol-3-ol]
7 | > 250 | Oc1cc(CCCCn2ccnc2)on1 [Compound 32, 5-(4-(1H-imidazol-1-yl)butyl)isoxazol-3-ol]
8 | 100 to 250 | CC(C)(c1ccc(-c2cc(O)no2)cc1)n1ccnc1 [Compound 23, 5-(4-(2-(1H-imidazol-1-yl)propan-2-yl)phenyl)isoxazol-3-ol]
9 | 50 to 100 | Oc1cc(-c2c(F)cc(Cn3ccnc3)cc2F)on1 [Compound 5, 5-(4-((1H-imidazol-1-yl)methyl)-2,6-difluorophenyl)isoxazol-3-ol]
10 | > 250 | Oc1cc(Cc2ccc(Cn3ccnc3)cc2)on1 [Compound 25, 5-(4-(2-(1H-imidazol-1-yl)methyl)benzyl)isoxazol-3-ol]
11 | 25 to 50 | Oc1cc(-c2ccc(Cn3ccnc3)c(Cl)c2)on1 [Compound 11, 5-(4-((1H-imidazol-1-yl)methyl)-3-chlorophenyl)isoxazol-3-ol]
12 | ≤ 25 | Oc1cc(-c2ccc(Cn3ccnc3)cc2)on1 [Compound 1, 5-(4-((1H-imidazol-1-yl)methyl)phenyl)isoxazol-3-ol]
13 | ≤ 25 | CCc1cc(-c2cc(O)no2)ccc1Cn1ccnc1 [Compound 16, 5-(4-((1H-imidazol-1-yl)methyl)-3-ethylphenyl)isoxazol-3-ol]
14 | ≤ 25 | Oc1cc(-c2cc(F)c(Cn3ccnc3)c(F)c2)on1 [Compound 17, 5-(4-((1H-imidazol-1-yl)methyl)-3,5-difluorophenyl)isoxazol-3-ol]
15 | 100 to 250 | Oc1c(F)ccc(-c2ccc(Cn3ccnc3)cc2)c1F [Compound 28, 4′-((1H-imidazol-1-yl)methyl)-2,4-difluoro-[1,1′-biphenyl]-3-ol]
16 | 50 to 100 | COc1cc(-c2cc(O)no2)ccc1Cn1ccnc1 [Compound 10, 5-(4-((1H-imidazol-1-yl)methyl)-3-methoxyphenyl)isoxazol-3-ol]
17 | > 250 | Oc1cc(-c2ccc(Cn3ccnc3)cc2)sn1 [Compound 29, 5-(4-((1H-imidazol-1-yl)methyl)phenyl)isothiazol-3-ol]
18 | 25 to 50 | Oc1cc(-c2cc(F)c(Cn3ccnc3)c(Cl)c2)on1 [Compound 6, 5-(4-((1H-imidazol-1-yl)methyl)-3-chloro-5-fluorophenyl)-isoxazol-3-ol]

Row | IC50 [nM] | Compound
19 | > 250 | Cc1cc(-c2cc(O)no2)cc(C)c1Cn1ccnc1 [Compound 18, 5-(4-((1H-imidazol-1-yl)methyl)-3,5-dimethylphenyl)isoxazol-3-ol]
20 | > 250 | Oc1cc(-c2ccc(Cn3ccnc3)cc2)[nH]n1 [Compound 31, 5-(4-((1H-imidazol-1-yl)methyl)phenyl)-1H-pyrazol-3-ol]
21 | ≤ 25 | COc1cc(Cn2ccnc2)ccc1-c1cc(O)no1 [Compound 9, 5-(4-((1H-imidazol-1-yl)methyl)-2-methoxyphenyl)isoxazol-3-ol]
22 | > 250 | Oc1nccc(-c2ccc(Cn3ccnc3)cc2)c1F [Compound 27, 4-(4-((1H-imidazol-1-yl)methyl)phenyl)-3-fluoropyridin-2-ol]
23 | > 250 | Oc1cc(CCCCCn2ccnc2)on1 [Compound 33, 5-(5-(1H-imidazol-1-yl)pentyl)isoxazol-3-ol]
24 | > 250 | Oc1cc(-c2cccc(Cn3ccnc3)c2)on1 [Compound 24, 5-(3-((1H-imidazol-1-yl)methyl)phenyl)isoxazol-3-ol]
25 | 50 to 100 | C[C@@H](c1ccc(-c2cc(O)no2)cc1)n1ccnc1 [Compound 22, (S)-5-(4-(1-(1H-imidazol-1-yl)ethyl)phenyl)isoxazol-3-ol]
26 | > 250 | Cc1c(O)noc1-c1ccc(Cn2ccnc2)cc1 [Compound 30, 5-(4-((1H-imidazol-1-yl)methyl)phenyl)-4-methylisoxazol-3-ol]
27 | 50 to 100 | Oc1cc([C@H]2CC[C@@H](Cn3ccnc3)CC2)on1 [Compound 35, 5-(cis-4-((1H-imidazol-1-yl)methyl)cyclohexyl)isoxazol-3-ol]
28 | > 250 | Oc1cc(Cc2cccc(Cn3ccnc3)c2)on1 [Compound 26, 5-(3-((1H-imidazol-1-yl)methyl)benzyl)isoxazol-3-ol]
29 | 25 to 50 | Oc1cc(-c2cc(F)c(Cn3ccnc3)cc2F)on1 [Compound 4, 5-(4-((1H-imidazol-1-yl)methyl)-2,5-difluorophenyl)isoxazol-3-ol]
30 | 100 to 250 | Oc1cc(-c2ccc(Cn3ccnc3)c(F)c2)on1 [Compound 2, 5-(4-((1H-imidazol-1-yl)methyl)-3-fluorophenyl)isoxazol-3-ol]
31 | 50 to 100 | Oc1cc(-c2ccc(Cn3ccnc3)cc2F)on1 [Compound 3, 5-(4-((1H-imidazol-1-yl)methyl)-2-fluorophenyl)isoxazol-3-ol]
32 | 50 to 100 | Oc1cc(-c2ccc(Cn3ccnc3)c(C3CC3)c2)on1 [Compound 15, 5-(4-((1H-imidazol-1-yl)methyl)-3-cyclopropylphenyl)isoxazol-3-ol]
33 | > 250 | Oc1cc(-c2ccc(Cn3ccnc3)nc2)on1 [Compound 14, 5-(6-((1H-imidazol-1-yl)methyl)pyridin-3-yl)isoxazol-3-ol]
34 | 100 to 250 | Oc1nccc(C2=CCC(Cn3ccnc3)CC2)c1F (stereo not drawn) [Compound 36, 4-(4-((1H-imidazol-1-yl)methyl)cyclohex-1-en-1-yl)-3-fluoropyridin-2-ol]
35 | 25 to 50 | Cc1cc(-c2cc(O)no2)ccc1Cn1ccnc1 [Compound 12, 5-(4-((1H-imidazol-1-yl)methyl)-3-methylphenyl)isoxazol-3-ol]

same assay, conditions: male SD rat whole blood, 37° C. 30 mins, TXB2 by LC-MS/MS; numeric value; read-out: IC50 for the release level of TXB2 in the in-vitro coagulation of rats' whole blood (thromboxane synthetase)

Row | IC50 [nM] | Compound
36 | 120 | O=C(O)/C=C/c1ccc(Cn2ccnc2)cc1 [Ozagrel, reference compound]
